Reference: patent US20240016729A1, “INJECTABLE FORMULATIONS OF IBUDILAST” (MediciNova, Inc., priority 2022, published 2024)
≈ marks a conversion by molar mass, not a printed value.

How the values were obtained:
[1] = Initial solubility screen with various excipients; type: physicochemical; settings: for solubility at 24 h: fully dissolved after 24 h
[2] = Follow-up solubility assessment (cosolvent mixtures, surfactants); type: physicochemical; settings: thermodynamic from solid, ibudilast conc. 75 mg/mL
Experimental: Solubility of ibudilast was assessed using cosolvent mixtures with and without water, increased surfactant concentrations, or a combination of surfactant and cosolvents as shown in the following table.

CC(C)C(=O)c1c(C(C)C)nn2ccccc12 [ibudilast, 3-isobutyryl-2-isopropylpyrazolo[1,5-a]pyridine]
solubility ([1]; aqueous buffer, thermodynamic from solid, acetate buffer pH 5, 50 mM, ibudilast conc. 5 mg/mL): 0.175 mg/mL (≈ 0.76 mM) | solubility ([1]; aqueous buffer, thermodynamic from solid, borate buffer pH 9, 50 mM, ibudilast conc. 5 mg/mL): 0.171 mg/mL (≈ 0.742 mM) | solubility ([1]; aqueous buffer, thermodynamic from solid, citrate buffer pH 3, 50 mM, ibudilast conc. 5 mg/mL): 0.375 mg/mL (≈ 1.63 mM) | solubility ([1]; aqueous buffer, thermodynamic from solid, phosphate buffer pH 7.5, 50 mM, ibudilast conc. 5 mg/mL): 0.175 mg/mL (≈ 0.76 mM) | solubility ([1]; aqueous with cosolvent or surfactant or cyclodextrin, thermodynamic from solid, HP-β-CD 10% w/v, ibudilast conc. 25 mg/mL): 2.11 mg/mL (≈ 9.14 mM) | solubility ([1]; aqueous with cosolvent or surfactant or cyclodextrin, thermodynamic from solid, HP-β-CD 30% w/v, ibudilast conc. 25 mg/mL): 6.72 mg/mL (≈ 29.2 mM) | solubility ([1]; aqueous with cosolvent or surfactant or cyclodextrin, thermodynamic from solid, Kolliphor ELP 5% w/v, ibudilast conc. 25 mg/mL): 6.82 mg/mL (≈ 29.6 mM) | solubility at 24 h ([1]; aqueous with cosolvent or surfactant or cyclodextrin, thermodynamic from solid, Kolliphor ELP 30% w/v, ibudilast conc. 25 mg/mL, solubility may be higher): 28 mg/mL (≈ 122 mM) | solubility ([1]; aqueous with cosolvent or surfactant or cyclodextrin, thermodynamic from solid, Kolliphor HS 15 5% w/v, ibudilast conc. 25 mg/mL): 5.64 mg/mL (≈ 24.5 mM) | solubility ([1]; aqueous with cosolvent or surfactant or cyclodextrin, thermodynamic from solid, Kolliphor HS 15 50% w/v, ibudilast conc. 25 mg/mL): 22.8 mg/mL (≈ 99 mM) | solubility ([1]; aqueous with cosolvent or surfactant or cyclodextrin, thermodynamic from solid, Kolliphor RH 40 5% w/v, ibudilast conc. 25 mg/mL): 5.58 mg/mL (≈ 24.2 mM) | solubility ([1]; aqueous with cosolvent or surfactant or cyclodextrin, thermodynamic from solid, Kolliphor RH 40 30% w/v, ibudilast conc. 25 mg/mL): 29.5 mg/mL (≈ 128 mM) | solubility ([1]; aqueous with cosolvent or surfactant or cyclodextrin, thermodynamic from solid, PEG 400 25% w/v, ibudilast conc. 25 mg/mL): 1.11 mg/mL (≈ 4.81 mM) | solubility ([1]; aqueous with cosolvent or surfactant or cyclodextrin, thermodynamic from solid, SBE-β-CD 10% w/v, ibudilast conc. 25 mg/mL): 3.79 mg/mL (≈ 16.4 mM) | solubility ([1]; aqueous with cosolvent or surfactant or cyclodextrin, thermodynamic from solid, SBE-β-CD 30% w/v, ibudilast conc. 25 mg/mL): 11.9 mg/mL (≈ 51.6 mM) | solubility ([1]; aqueous with cosolvent or surfactant or cyclodextrin, thermodynamic from solid, Tween 20 5% w/v, ibudilast conc. 25 mg/mL): 3.21 mg/mL (≈ 13.9 mM) | solubility at 24 h ([1]; aqueous with cosolvent or surfactant or cyclodextrin, thermodynamic from solid, Tween 20 50% w/v, ibudilast conc. 25 mg/mL, solubility may be higher): 27.2 mg/mL (≈ 118 mM) | solubility ([1]; aqueous with cosolvent or surfactant or cyclodextrin, thermodynamic from solid, Tween 80 5% w/v, ibudilast conc. 25 mg/mL): 4.79 mg/mL (≈ 20.8 mM) | solubility ([1]; aqueous with cosolvent or surfactant or cyclodextrin, thermodynamic from solid, Tween 80 30% w/v, ibudilast conc. 25 mg/mL): 21.5 mg/mL (≈ 93.4 mM) | solubility ([1]; aqueous with cosolvent or surfactant or cyclodextrin, thermodynamic from solid, ethanol 25% w/v, ibudilast conc. 25 mg/mL): 4.15 mg/mL (≈ 18 mM) | solubility ([1]; aqueous with cosolvent or surfactant or cyclodextrin, thermodynamic from solid, glycerol 25% w/v, ibudilast conc. 25 mg/mL): 0.385 mg/mL (≈ 1.67 mM) | solubility ([1]; organic solvent or mixture, thermodynamic from solid, PEG 400 100% w/v, more ibudilast added up to 50 mg/mL after 2 h tumbling, solubility may be higher): 51.6 mg/mL (≈ 224 mM) | solubility ([1]; organic solvent or mixture, thermodynamic from solid, ethanol 100% w/v, more ibudilast added up to 50 mg/mL after 2 h tumbling, solubility may be higher): 50 mg/mL (≈ 217 mM) | solubility ([1]; organic solvent or mixture, thermodynamic from solid, glycerol 100% w/v, ibudilast conc. 25 mg/mL): 10.3 mg/mL (≈ 44.7 mM) | solubility ([1]; organic solvent or mixture, thermodynamic from solid, propylene glycol 100% w/v, more ibudilast added up to 50 mg/mL after 2 h tumbling, solubility may be higher): 52.9 mg/mL (≈ 230 mM) | solubility ([1]; water, ibudilast conc. 5 mg/mL): 0.186 mg/mL (≈ 0.808 mM) | solubility ([2]; Kolliphor ELP/ethanol/water 5/50/45 % w/v, aqueous with cosolvent or surfactant or cyclodextrin): 83.7 mg/mL | solubility ([2]; Kolliphor ELP/propylene glycol/water 5/50/45 % w/v, aqueous with cosolvent or surfactant or cyclodextrin): 19.4 mg/mL | solubility ([2]; Kolliphor ELP/propylene glycol/water 30/50/20 % w/v, aqueous with cosolvent or surfactant or cyclodextrin): 72.9 mg/mL | solubility ([2]; Kolliphor ELP/water 30/70 % w/v, aqueous with cosolvent or surfactant or cyclodextrin): 42.7 mg/mL | solubility ([2]; Kolliphor ELP/water 80/20 % w/v, aqueous with cosolvent or surfactant or cyclodextrin, less than 5 mL added due to viscosity of medium): 97.6 mg/mL | solubility ([2]; PEG 400/water 50/50 % w/v cosolvent mixture, aqueous with cosolvent or surfactant or cyclodextrin, PEG 400/water 50/50 % w/v): 9.22 mg/mL | solubility ([2]; Tween 80/ethanol/water 5/50/45 % w/v, aqueous with cosolvent or surfactant or cyclodextrin): 84 mg/mL | solubility ([2]; Tween 80/propylene glycol/water 5/50/45 % w/v, aqueous with cosolvent or surfactant or cyclodextrin): 14.8 mg/mL | solubility ([2]; Tween 80/propylene glycol/water 30/50/20 % w/v, aqueous with cosolvent or surfactant or cyclodextrin): 76.3 mg/mL | solubility ([2]; Tween 80/water 30/70 % w/v, aqueous with cosolvent or surfactant or cyclodextrin): 31.9 mg/mL | solubility ([2]; Tween 80/water 80/20 % w/v, aqueous with cosolvent or surfactant or cyclodextrin, less than 5 mL added due to viscosity of medium): 84.4 mg/mL | solubility ([2]; aqueous with cosolvent or surfactant or cyclodextrin, propylene glycol/ethanol/water 50/25/25 % w/v): 71.4 mg/mL | solubility ([2]; ethanol/water 50/50 % w/v, aqueous with cosolvent or surfactant or cyclodextrin): 72.6 mg/mL | solubility ([2]; organic solvent or mixture, propylene glycol/PEG 400/glycerol 50/25/25 % w/v): 68.7 mg/mL | solubility ([2]; organic solvent or mixture, propylene glycol/ethanol/glycerol 50/25/25 % w/v): 71.9 mg/mL | solubility ([2]; propylene glycol/PEG 400/water 50/25/25 % w/v, aqueous with cosolvent or surfactant or cyclodextrin): 31.3 mg/mL | solubility ([2]; propylene glycol/water 50/50 % w/v, aqueous with cosolvent or surfactant or cyclodextrin): 5.82 mg/mL | solubility ([2]; propylene glycol/water 80/20 % w/v, aqueous with cosolvent or surfactant or cyclodextrin): 37.3 mg/mL
